From paper PMC4660442, “Identification of potential inhibitors based on compound proposal contest: Tyrosine-protein kinase Yes as a target” (Scientific Reports, 2015)

Molecular target: T1, tyrosine-protein kinase Yes (Homo sapiens, UniProt P07947)
T1 construct: gene YES1
Assay: reference inhibitor in ADP-Glo kinase assay, recombinant human Yes; no value given
Assay type: biochemical

T1 sequence (P07947 2-543): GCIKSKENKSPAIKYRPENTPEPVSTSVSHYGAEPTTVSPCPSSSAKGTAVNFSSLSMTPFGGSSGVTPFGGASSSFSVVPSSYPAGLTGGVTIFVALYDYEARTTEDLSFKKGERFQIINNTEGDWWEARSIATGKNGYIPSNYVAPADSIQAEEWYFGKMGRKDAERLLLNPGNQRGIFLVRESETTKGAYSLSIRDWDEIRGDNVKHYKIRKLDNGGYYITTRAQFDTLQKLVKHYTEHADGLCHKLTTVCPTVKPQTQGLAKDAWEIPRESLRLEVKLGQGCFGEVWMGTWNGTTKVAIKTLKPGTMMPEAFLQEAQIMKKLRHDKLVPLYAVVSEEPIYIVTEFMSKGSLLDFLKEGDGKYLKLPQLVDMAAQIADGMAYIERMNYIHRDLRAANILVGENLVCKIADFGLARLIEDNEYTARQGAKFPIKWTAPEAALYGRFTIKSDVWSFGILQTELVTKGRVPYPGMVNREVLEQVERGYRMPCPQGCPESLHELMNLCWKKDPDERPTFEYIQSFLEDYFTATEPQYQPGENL

CN[C@@H]1C[C@H]2O[C@@](C)([C@@H]1OC)n1c3ccccc3c3c4c(c5c6ccccc6n2c5c31)C(=O)NC4 [Staurosporine]
reference inhibitor in ADP-Glo kinase assay, recombinant human Yes; no value pri: Staurosporine, a well-known pan-kinase inhibitor typically used as a reference in kinase assays, was selected as an active inhibitor for Yes
